EP2540163A1, “Nematocide N-cyclopropyl-sulfonylamide derivatives” (Bayer CropScience AG, priority 2011, dated 2013)

Assay: logP by HPLC on reversed-phase column (C 18), EEC Directive 79/831 Annex V.A8, Method A (0.1% aqueous phosphoric acid / acetonitrile, 43°C)
Type: physicochemical
Details: c18 reversed-phase hplc; LogP method A: HPLC reversed-phase C 18, 43°C, 0.1% aqueous phosphoric acid / acetonitrile
Protocol: (§1) Calibration was carried out using unbranched alkan-2-ones (having 3 to 16 carbon atoms) with known logP values (determination of the logP values by the retention times using linear interpolation between two successive alkanones).

SMILES	chromatographic logP
Cc1nn(C)c(F)c1C(=O)N(C1CC1)S(=O)(=O)c1ccc(C(F)(F)F)cc1Cl [compound 213]	3.19
CCOC(=O)c1[nH]c(C)c(C(=O)N(C2CC2)S(=O)(=O)c2ccc(Cl)cc2Cl)c1C [compound 32]	3.63
Cc1nn(C)c(F)c1C(=O)N(C1CC1)S(=O)(=O)c1c(Cl)cccc1Cl [compound 218]	2.52
Cc1nn(C)c(Oc2cccc(Cl)c2)c1C(=O)N(C1CC1)S(=O)(=O)c1cccc(Cl)c1 [compound 399]	3.94
Cc1ncc(C(=O)N(C2CC2)S(=O)(=O)c2ccc(Cl)c(Cl)c2)s1 [compound 63]	3.33
CCOC(=O)c1[nH]c(C)c(C(=O)N(C2CC2)S(=O)(=O)c2ccc(Cl)c(C(F)(F)F)c2)c1C [compound 31]	4.08
Cc1nn(C)c(C)c1C(=O)N(C1CC1)S(=O)(=O)c1ccc(Cl)c(Cl)c1 [compound 412]	3.21
CCc1c(C(=O)N(C2CC2)S(=O)(=O)c2ccc(Cl)cc2Cl)sc(=O)n1C1CC1 [compound 631]	2.01
O=C(C1=C(C(F)(F)F)OCCS1)N(C1CC1)S(=O)(=O)c1ccccc1Cl [compound 653]	3.2
Cc1c(C(=O)N(C2CC2)S(=O)(=O)c2ccc(Cl)c(C(F)(F)F)c2)sc(=O)n1Cc1ccccc1 [compound 625]	3.01
Cc1ccsc1C(=O)N(C1CC1)S(=O)(=O)c1ccccc1Cl [compound 14]	3.12
CC(C)c1c(C(=O)N(C2CC2)S(=O)(=O)c2ccc(Cl)cc2Cl)sc(=O)n1C1CC1 [compound 635]	2.01
Cc1ncc(C(=O)N(C2CC2)S(=O)(=O)c2ccc(Cl)c(C(F)(F)F)c2)s1 [compound 62]	3.46
Cc1nn(C)c(Oc2cccc(Cl)c2)c1C(=O)N(C1CC1)S(=O)(=O)c1ccc(Cl)c(Cl)c1 [compound 405]	4.46
Cc1nn(C)c(F)c1C(=O)N(C1CC1)S(=O)(=O)c1cccc(Cl)c1Cl [compound 210]	2.77
Cc1c(C(=O)N(C2CC2)S(=O)(=O)c2ccc(Cl)c(Cl)c2)sc(=O)n1Cc1ccccc1 [compound 626]	3.01
CCc1onc(C(C)C)c1C(=O)N(C1CC1)S(=O)(=O)c1ccc(Cl)cc1Cl [compound 596]	4.41
Cc1nn(C)c(C)c1C(=O)N(C1CC1)S(=O)(=O)c1ccc(Cl)c(C(F)(F)F)c1 [compound 411]	3.37
Cc1nn(C)c(F)c1C(=O)N(C1CC1)S(=O)(=O)c1cc(Cl)sc1Cl [compound 435]	3.16
Cc1nn(C)c(F)c1C(=O)N(C1CC1)S(=O)(=O)c1cccnc1Cl [compound 446]	1.96

SMILES	chromatographic logP
Cn1cc(C(=O)N(C2CC2)S(=O)(=O)c2ccccc2Cl)c(C(F)(F)F)n1 [compound 200]	2.71
Cc1nn(C)c(C)c1C(=O)N(C1CC1)S(=O)(=O)c1ccc(Cl)cc1Cl [compound 413]	2.8
Cc1nn(C)c(Oc2cccc(Cl)c2)c1C(=O)N(C1CC1)S(=O)(=O)c1ccc(Cl)c(C(F)(F)F)c1 [compound 404]	4.56
Cc1n[nH]c(C)c1C(=O)N(C1CC1)S(=O)(=O)c1ccc(Cl)c(Cl)c1 [compound 409]	2.74
CC(C)c1c(C(=O)N(C2CC2)S(=O)(=O)c2ccc(Cl)c(Cl)c2)sc(=O)n1C1CC1 [compound 634]	3.01
O=C(c1cccnc1Cl)N(C1CC1)S(=O)(=O)c1cccc(Cl)c1 [compound 643]	2.91
CCc1onc(C(C)C)c1C(=O)N(C1CC1)S(=O)(=O)c1ccc(Cl)c(Cl)c1 [compound 595]	4.77
CC(C)c1c(C(=O)N(C2CC2)S(=O)(=O)c2cccc(Cl)c2)sc(=O)n1C1CC1 [compound 617]	2.01
Cc1cc(C)c(C(=O)N(C2CC2)S(=O)(=O)c2ccc(Cl)c(Cl)c2Cl)c(Cl)n1 [compound 651]	4.16
Cc1c(C(=O)N(C2CC2)S(=O)(=O)c2ccc(Cl)c(Cl)c2)sc(=O)n1C [compound 623]	2.01
CCc1onc(C(C)C)c1C(=O)N(C1CC1)S(=O)(=O)c1cccc(Cl)c1 [compound 589]	4.18
Cn1cc(C(=O)N(C2CC2)S(=O)(=O)c2ccccc2Cl)c(I)n1 [compound 214]	2.31
Cc1ccsc1C(=O)N(C1CC1)S(=O)(=O)c1cccc(Cl)c1 [compound 13]	3.64
O=C(c1cccnc1Cl)N(C1CC1)S(=O)(=O)c1ccccc1Cl [compound 644]	2.58
O=C(c1cc(Br)c(Br)o1)N(C1CC1)S(=O)(=O)c1ccccc1Cl [compound 1]	3.58
Cn1nc(C(=O)N(C2CC2)S(=O)(=O)c2ccccc2Cl)n(C)c1=O [compound 608]	1.97
Cc1n[nH]c(C)c1C(=O)N(C1CC1)S(=O)(=O)c1ccc(Cl)c(C(F)(F)F)c1 [compound 408]	3
Cc1nn(C)c(F)c1C(=O)N(C1CC1)S(=O)(=O)c1ccc(Cl)c(Cl)c1Cl [compound 212]	3.35
CCc1c(C(=O)N(C2CC2)S(=O)(=O)c2ccc(Cl)c(Cl)c2)sc(=O)n1C1CC1 [compound 630]	4.08
Cc1ncc(C(=O)N(C2CC2)S(=O)(=O)c2ccc(Cl)cc2Cl)s1 [compound 64]	2.91

SMILES	chromatographic logP
CC(C)c1c(C(=O)N(C2CC2)S(=O)(=O)c2ccc(Cl)c(C(F)(F)F)c2)sc(=O)n1C1CC1 [compound 633]	3.01
Cc1nn(C)c(C)c1C(=O)N(C1CC1)S(=O)(=O)c1ccccc1Cl [compound 215]	2.17
Cc1nn(C)c(Cl)c1C(=O)N(C1CC1)S(=O)(=O)c1ccc(Cl)c(Cl)c1 [compound 407]	3.63
COc1nn(C)cc1C(=O)N(C1CC1)S(=O)(=O)c1ccccc1Cl [compound 211]	1.94
Cc1nn(C)c(F)c1C(=O)N(C1CC1)S(=O)(=O)c1ccccc1Cl [compound 180]	2.34
Cc1nn(C)c(F)c1C(=O)N(C1CC1)S(=O)(=O)c1cccc(Cl)c1 [compound 176]	2.82
Cc1nc(C(=O)N(C2CC2)S(=O)(=O)c2ccc(Cl)cc2Cl)cs1 [compound 71]	3.03
Cc1nn(C)c(Cl)c1C(=O)N(C1CC1)S(=O)(=O)c1ccc(Cl)c(C(F)(F)F)c1 [compound 406]	3.76
COCCn1c(C)c(C(=O)N(C2CC2)S(=O)(=O)c2ccc(Cl)c(C(F)(F)F)c2)sc1=O [compound 619]	2.01
Cc1cc(C)c(C(=O)N(C2CC2)S(=O)(=O)c2cccc(Cl)c2Cl)c(Cl)n1 [compound 650]	3.57
O=C(c1cccnc1)N(C1CC1)S(=O)(=O)c1ccc(Cl)c(Cl)c1 [compound 639]	2.91
Cc1c(C(=O)N(C2CC2)S(=O)(=O)c2ccc(Cl)c(C(F)(F)F)c2)sc(=O)n1C [compound 622]	2.01
Cc1nn(C)c(F)c1C(=O)N(C1CC1)S(=O)(=O)c1ccc(Cl)c(Cl)c1 [compound 178]	3.35
O=C(c1cc(Br)c(Br)s1)N(C1CC1)S(=O)(=O)c1ccccc1Cl [compound 15]	4.07
Cc1cc(C(=O)N(C2CC2)S(=O)(=O)c2ccccc2Cl)nc(Cl)n1 [compound 654]	2.93
Cc1nc(C(F)(F)F)c(C(=O)N(C2CC2)S(=O)(=O)c2ccccc2Cl)s1 [compound 59]	3.2
CCc1onc(C(C)C)c1C(=O)N(C1CC1)S(=O)(=O)c1ccc(Cl)c(C(F)(F)F)c1 [compound 594]	4.82
Cc1c(C(=O)N(C2CC2)S(=O)(=O)c2cccc(Cl)c2)sc(=O)n1Cc1ccccc1 [compound 613]	2.01
Cn1nc(C(F)(F)F)c(C(=O)N(C2CC2)S(=O)(=O)c2ccccc2Cl)c1Cl [compound 208]	3.27
Cc1c(C(=O)N(C2CC2)S(=O)(=O)c2ccc(Cl)cc2Cl)sc(=O)n1Cc1ccccc1 [compound 627]	4.03

Same assay, conditions: c18 reversed-phase hplc; LogP method A: HPLC, 43°C, 0.1% aqueous phosphoric acid, acetonitrile, gradient 10% to 90% acetonitrile

SMILES	chromatographic logP
Cc1nn(C)c(F)c1C(=O)N(C1(c2ccc(Cl)cc2)CC1)S(=O)(=O)c1cccc(Cl)c1Cl [compound 669]	4.44
Cc1nn(C)c(F)c1C(=O)N(C1CC1c1ccccc1)S(=O)(=O)c1ccccc1Cl (stereo not shown) [compound 676]	3.27

Assay: logP by HPLC on reversed-phase column (C 18), EEC Directive 79/831 Annex V.A8, Method B (0.1% aqueous formic acid / acetonitrile, 40°C)
Type: physicochemical
Details: c18 reversed-phase hplc; LogP method B: HPLC reversed-phase C 18, 40°C, 0.1% aqueous formic acid / acetonitrile
Protocol: as §1

SMILES	chromatographic logP
CCOc1nn(C)cc1C(=O)N(C1CC1)S(=O)(=O)c1ccc(Oc2ccccc2)cc1Cl [compound 530]	3.6
Cc1cnn(C)c1C(=O)N(C1CC1)S(=O)(=O)c1cccc(Cl)c1Cl [compound 658]	3.1
CCOc1nn(C)cc1C(=O)N(C1CC1)S(=O)(=O)c1ccc(Oc2ccc(Cl)c(C(F)(F)F)c2)c(Cl)c1 [compound 556]	4.8
CCOc1nn(C)cc1C(=O)N(C1CC1)S(=O)(=O)c1ccc(Oc2cccc(C(F)(F)F)c2F)c(Cl)c1 [compound 547]	4.3
CCOc1nn(C)cc1C(=O)N(C1CC1)S(=O)(=O)c1ccc(Oc2cccc(Cl)c2)c(Cl)c1 [compound 546]	4.3
COc1nn(C)c(Cl)c1C(=O)N(C1CC1)S(=O)(=O)c1ccc(Cl)c(Cl)c1Cl [compound 282]	3.8
CCOc1nn(C)cc1C(=O)N(C1CC1)S(=O)(=O)c1ccc(Oc2cccc(Br)c2)cc1Cl [compound 534]	3.9
Cc1nn(C)c(Cl)c1S(=O)(=O)N(C(=O)c1c(C(F)(F)F)nn(C)c1F)C1CC1 [compound 443]	2.6
CC(C)c1nn(C)c(F)c1C(=O)N(C1CC1)S(=O)(=O)c1ccc(Cl)cc1Cl [compound 96]	3.8
COc1nn(C)cc1C(=O)N(C1CC1)S(=O)(=O)c1c(Cl)cc(Cl)cc1Cl [compound 461]	2.7
Cc1nn(C)c(C(=O)N(C2CC2)S(=O)(=O)c2cccc(Cl)c2Cl)c1Cl [compound 586]	3.7
